From patent EP4725957A1, “GROUP OF CYCLIC ALKALINE LIPOPEPTIDE COMPOUNDS, AND PREPARATION METHOD THEREFOR AND USE THEREOF” (Institute of Medicinal Biotechnology, Chinese Academy of …, priority 2023, dated 2024)
≈ marks a conversion by molar mass, not a printed value. Numbered stars: 1 amine (or outer) side, 2 acyl side, 3 side chain; on linkers, the order of the positions; unused ones are H or OH. Bridge positions count the residues as written; N and C are the ends. Square brackets hold non-standard residues; d marks the D form. Peptide text beside a SMILES is read from it. * marks the point of attachment. X2 = O=C([C@H](CNCS(=O)(=O)O)N[*:1])[*:2]; Heptanoyl(6-Me) = CC(C)CCCCC(=O)*; dOrn = NCCC[C@@H](N)C(=O)O; Nonanoyl = CCCCCCCCC(=O)*; X1 = CC[C@H](C)CCCCC(=O)*; dDab = NCC[C@@H](N)C(=O)O; Heptanoyl = CCCCCCC(=O)*; Octanoyl = CCCCCCCC(=O)*; Orn = NCCC[C@H](N)C(=O)O; Dab = NCC[C@H](N)C(=O)O; Dap = NC[C@H](N)C(=O)O

Tests used:
Assay type in all cases: cell-based
[1] = Nephrotoxicity assay: in vitro cytotoxicity of HK-2 cells by CCK-8 assay; details: human, HK-2 cells (human renal), 72 h incubation with drug-containing medium
Method: In vitro cytotoxicity detection of HK-2 cells was performed by the CCK-8 assay.
The culture medium for human renal HK-2 cells was a complete RPMI-1640 medium (Invitrogen) supplemented with 10% fetal bovine serum (FBS, Gibco). The cryopreservation solution was composed of 90% FBS and 10% dimethyl sulfoxide (DMSO), and the cells were preserved long-term in liquid nitrogen. Cells were cultured in a sterile incubator with a humidified atmosphere containing 5% CO2 at 37°C. When the cell density reached 70%-80%, cell digestion and subculture were conducted. The cyclic lipopeptide compounds prepared in Examples 1-120 were weighed and dissolved in sterile water to prepare a mother solution with a concentration of 1 mg/mL. Drug-containing culture media were then formulated, with the final concentrations set as 500, 250, 200, 100, 50, 25, and 12.5 µg/mL, respectively. Cells were adjusted to a density of 5 × 10^4 cells/mL and seeded into 96-well plates, with 100 µL of cell suspension added to each well. After stable incubation for 24 h, the original medium was replaced with the prepared drug-containing medium, and the plates were incubated in the incubator for an additional 72 h. The medium was gently aspirated, and 100 µL of blank medium containing 10% CCK-8 was added to each well. After incubation in the incubator for 3 h, the optical density (OD) values at 450 nm were measured using a BIOTEK microplate reader. The experiment was repeated three times. For each replicate, polymyxin B was set as the positive drug, and a drug-free blank group was established as the control. The cell viability (%) was calculated by the formula: Cell viability (%) = [(OD of drug-treated group - OD of zero-setting) / (OD of drug-free group - OD of zero-setting)] × 100%. The half-maximal inhibitory concentration (IC50) values were calculated through logarithmic regression analysis.
The cells used for the nephrotoxicity assay were obtained from the ATCC ( American Type Culture Collection). The Cell Counting Kit-8 (CCK-8) used in the assay was supplied by Beyotime Biotechnology Co., Ltd.

[2] = test system: Acinetobacter baumannii NCTC 13304 (OXA-27); details: NCTC 13304
Method: (§1) The minimal inhibitory concentration (MIC) was determined by the broth microdilution method according to the recommended procedures of the Clinical and Laboratory Standards Institute (CLSI).
(§2) An appropriate amount of the cyclic lipopeptide compounds prepared in Examples 1-120 and the reference standards were weighed and dissolved in sterile pure water. An appropriate volume of the mother solution was subjected to ten-fold dilution with sterile Mueller-Hinton (MH) broth to a concentration of 0.256 mg/mL. Half of the drug solution was aliquoted into 96-well reagent reservoirs, while the other half was subjected to two-fold serial dilution with sterile MH broth before being transferred into deep-well reagent reservoirs. The above steps were repeated, so that the drug concentrations in the reagent reservoirs were adjusted to 128, 64, 32, 16, 8, 4, 2, 1, 0.5, 0.25, 0.125 and 0.06 mg/L in sequence, and all solutions were prepared and used immediately. Several colonies were picked from agar plates cultured for 18-24 h and directly suspended in sterile normal saline, and the concentration of the bacterial suspension was adjusted to 0.5 McFarland units. The calibrated bacterial suspension was diluted with MH broth to a concentration of (4-8) × 10^5 colony-forming units per milliliter (CFU/mL) and prepared and used immediately. A volume of 100 µL of the aforementioned compounds of the present disclosure (e.g., the compounds prepared in the examples) and reference solutions at different concentrations was separately pipetted into wells 1 to 12 of sterile 96-well polystyrene plates, and an additional 100 µL of the aforementioned inoculum was added to each well. The final concentrations of the samples in the wells were adjusted to 64, 32, 16, 8, 4, 2, 1, 0.5, 0.25, 0.125, 0.06 and 0.03 mg/L, respectively, and the final concentration of the inoculum in each well was (2-4) × 10^5 CFU/mL. Additional growth control wells were set up, each containing 100 µL of the inoculum and 100 µL of sterile MH broth. The test substances and inocula in all wells were mixed thoroughly and then sealed. The inoculated 96-well plates were incubated in an incubator at 35-37°C for 16-20 h.
(§3) The strains used for the antibacterial activity assay were obtained from the American Type Culture Collection (ATCC) and clinical isolates.
(§4) The strains employed for the antibacterial activity assay included Escherichia coli ATCC BAA-2523, ATCC BAA-2340 (KPC), Klebsiella pneumoniae KPN+19-15, ATCC BAA-1705 (KPC), Pseudomonas aeruginosa PAE19-3, ATCC 27853, Acinetobacter baumannii ABA19-1, and NCTC 13304 (OXA-27).

[3] = test system: Klebsiella pneumoniae KPN+19-15; details: KPN+19-15
Method: as §1, §2, §3, §4

[4] = test system: Klebsiella pneumoniae ATCC BAA-1705 (KPC); details: ATCC BAA-1705
Method: as §1, §2, §3, §4

[5] = test system: Pseudomonas aeruginosa PAE19-3; details: PAE19-3
Method: as §1, §2, §3, §4

[6] = test system: Pseudomonas aeruginosa ATCC 27853; details: ATCC 27853
Method: as §1, §2, §3, §4

[7] = test system: Escherichia coli ATCC BAA-2340 (KPC); details: ATCC BAA-2340
Method: as §1, §2, §3, §4

[8] = test system: Escherichia coli ATCC BAA-2523; details: ATCC BAA-2523
Method: as §1, §2, §3, §4

[9] = test system: Acinetobacter baumannii ABA19-1; details: ABA19-1
Method: as §1, §2, §3, §4

| SMILES | IC50 at 72 h [1] [mg/L] | MIC [2] [mg/L] | MIC [3] [mg/L] | MIC [4] [mg/L] | MIC [5] [mg/L] | MIC [6] [mg/L] | MIC [7] [mg/L] | MIC [8] [mg/L] | MIC [9] [mg/L] |
| --- | --- | --- | --- | --- | --- | --- | --- | --- | --- |
| CCCCCCC(=O)N[C@@H](CCN)C(=O)N[C@H](C(=O)N[C@H](CCCN)C(=O)N[C@H]1CCNC(=O)[C@H]([C@@H](C)O)NC(=O)[C@H](CCN)NC(=O)[C@H](CCN)NC(=O)[C@H](CC(C)C)NC(=O)[C@@H](Cc2ccccc2)NC(=O)[C@H](CCN)NC1=O)[C@@H](C)O [Compound 44, Heptanoyl-Dab-Thr-D-Orn-ring(4-10)[Dab-Dab-D-Phe-Leu-Dab-Dab-Thr]] (Heptanoyl-[Dab]T[dOrn][Dab][Dab][dF]L[Dab][Dab]T; lactam 4-C) | 308 ± 9.7 (≈ 259 µM) | 0.06 (≈ 0.0504 µM) | 0.125 (≈ 0.105 µM) | 0.06 (≈ 0.0504 µM) | 2 (≈ 1.68 µM) | 0.5 (≈ 0.42 µM) | 0.06 (≈ 0.0504 µM) | 0.06 (≈ 0.0504 µM) | 0.125 (≈ 0.105 µM) |
| CC(C)CCCCC(=O)N[C@@H](CCN)C(=O)N[C@H](C(=O)N[C@@H](CNCS(=O)(=O)O)C(=O)N[C@H]1CCNC(=O)[C@H]([C@@H](C)O)NC(=O)[C@H](CCN)NC(=O)[C@H](CCN)NC(=O)[C@H]([C@@H](C)O)NC(=O)[C@@H](Cc2ccccc2)NC(=O)[C@H](CCN)NC1=O)[C@@H](C)O [Compound 112, 6-methylheptanoyl-Dab-Thr-Dap(CH2SO3H)-ring(4-10)[Dab-Dab-D-Phe-Thr-Dab-Dab-Thr]] ({Heptanoyl(6-Me)}-[Dab]T[X2][Dab][Dab][dF]T[Dab][Dab]T; lactam 4-C) | > 500 | 0.06 (≈ 0.0477 µM) | 0.125 (≈ 0.0994 µM) | 0.125 (≈ 0.0994 µM) | 0.25 (≈ 0.199 µM) | 0.25 (≈ 0.199 µM) | 0.03 (≈ 0.0239 µM) | 0.03 (≈ 0.0239 µM) | 0.06 (≈ 0.0477 µM) |
| CCCCCCCC(=O)N[C@@H](CCN)C(=O)N[C@H](C(=O)N[C@H](CCCN)C(=O)N[C@H]1CCNC(=O)[C@H]([C@@H](C)O)NC(=O)[C@H](CCN)NC(=O)[C@H](CCN)NC(=O)[C@H](CC(C)C)NC(=O)[C@@H](Cc2ccccc2)NC(=O)[C@H](CCN)NC1=O)[C@@H](C)O [Compound 43, Octanoyl-Dab-Thr-D-Orn-ring(4-10)[Dab-Dab-D-Phe-Leu-Dab-Dab-Thr]] (Octanoyl-[Dab]T[dOrn][Dab][Dab][dF]L[Dab][Dab]T; lactam 4-C) | 328 ± 8.6 (≈ 273 µM) | 0.06 (≈ 0.0499 µM) | 0.125 (≈ 0.104 µM) | 0.06 (≈ 0.0499 µM) | 1 (≈ 0.831 µM) | 0.25 (≈ 0.208 µM) | 0.03 (≈ 0.0249 µM) | 0.03 (≈ 0.0249 µM) | 0.125 (≈ 0.104 µM) |
| CC[C@H](C)CCCCC(=O)N[C@@H](CCN)C(=O)N[C@H](C(=O)N[C@@H](CCN)C(=O)N[C@H]1CCNC(=O)[C@H]([C@@H](C)O)NC(=O)[C@H](CCN)NC(=O)[C@H](CCN)NC(=O)[C@H]([C@@H](C)O)NC(=O)[C@@H](Cc2ccccc2)NC(=O)[C@H](CCN)NC1=O)[C@@H](C)O [Compound 16, (S)-6-methyloctanoyl-Dab-Thr-Dab-ring(4-10)[Dab-Dab-D-Phe-Thr-Dab-Dab-Thr]] (X1-[Dab]T[Dab][Dab][Dab][dF]T[Dab][Dab]T; lactam 4-C) | > 500 | ≤0.03 | ≤0.03 | ≤0.03 | 0.5 (≈ 0.42 µM) | 0.5 (≈ 0.42 µM) | ≤0.03 | ≤0.03 | ≤0.03 |
| CCCCCCCCC(=O)N[C@@H](CCN)C(=O)N[C@H](C(=O)N[C@H](CCN)C(=O)N[C@H]1CCNC(=O)[C@H]([C@@H](C)O)NC(=O)[C@H](CCN)NC(=O)[C@H](CCN)NC(=O)[C@H]([C@@H](C)O)NC(=O)[C@@H](Cc2ccccc2)NC(=O)[C@H](CCN)NC1=O)[C@@H](C)O [Compound 15, Nonanoyl-Dab-Thr-D-Dab-ring(4-10)[Dab-Dab-D-Phe-Thr-Dab-Dab-Thr]] (Nonanoyl-[Dab]T[dDab][Dab][Dab][dF]T[Dab][Dab]T; lactam 4-C) | 320 ± 31.5 (≈ 269 µM) | 0.06 (≈ 0.0504 µM) | 0.06 (≈ 0.0504 µM) | 0.06 (≈ 0.0504 µM) | 2 (≈ 1.68 µM) | 2 (≈ 1.68 µM) | 0.06 (≈ 0.0504 µM) | 0.06 (≈ 0.0504 µM) | 0.06 (≈ 0.0504 µM) |
| CCCCCCCCC(=O)N[C@@H](CCN)C(=O)N[C@H](C(=O)N[C@@H](CCN)C(=O)N[C@H]1CCNC(=O)[C@H]([C@@H](C)O)NC(=O)[C@H](CCN)NC(=O)[C@H](CCN)NC(=O)[C@H]([C@@H](C)O)NC(=O)[C@@H](Cc2ccccc2)NC(=O)[C@H](CCN)NC1=O)[C@@H](C)O [Compound 20, Nonanoyl-Dab-Thr-Dab-ring(4-10)[Dab-Dab-D-Phe-Thr-Dab-Dab-Thr]] (Nonanoyl-[Dab]T[Dab][Dab][Dab][dF]T[Dab][Dab]T; lactam 4-C) | 280 ± 10.3 (≈ 235 µM) | 0.25 (≈ 0.21 µM) | 0.06 (≈ 0.0504 µM) | 0.06 (≈ 0.0504 µM) | 2 (≈ 1.68 µM) | 2 (≈ 1.68 µM) | 0.06 (≈ 0.0504 µM) | 0.06 (≈ 0.0504 µM) | 0.5 (≈ 0.42 µM) |
| CC(C)CCCCC(=O)N[C@@H](CN)C(=O)N[C@H](C(=O)N[C@H](CCN)C(=O)N[C@H]1CCNC(=O)[C@H]([C@@H](C)O)NC(=O)[C@H](CCN)NC(=O)[C@H](CCN)NC(=O)[C@H](CC(C)C)NC(=O)[C@@H](Cc2ccccc2)NC(=O)[C@H](CCN)NC1=O)[C@@H](C)O [Compound 92, 6-methylheptanoyl-Dap-Thr-D-Dab-ring(4-10)[Dab-Dab-D-Phe-Leu-Dab-Dab-Thr]] ({Heptanoyl(6-Me)}-[Dap]T[dDab][Dab][Dab][dF]L[Dab][Dab]T; lactam 4-C) | 228 ± 18.7 (≈ 194 µM) | 0.03 (≈ 0.0255 µM) | 0.03 (≈ 0.0255 µM) | 0.03 (≈ 0.0255 µM) | 0.5 (≈ 0.425 µM) | 0.5 (≈ 0.425 µM) | 0.03 (≈ 0.0255 µM) | 0.03 (≈ 0.0255 µM) | 0.03 (≈ 0.0255 µM) |
| CC[C@H](C)CCCCC(=O)N[C@@H](CCN)C(=O)N[C@H](C(=O)N[C@@H](CCCN)C(=O)N[C@H]1CCNC(=O)[C@H]([C@@H](C)O)NC(=O)[C@H](CCN)NC(=O)[C@H](CCN)NC(=O)[C@H]([C@@H](C)O)NC(=O)[C@@H](Cc2ccccc2)NC(=O)[C@H](CCN)NC1=O)[C@@H](C)O [Compound 26, (S)-6-methyloctanoyl-Dab-Thr-Orn-ring(4-10)[Dab-Dab-D-Phe-Thr-Dab-Dab-Thr]] (X1-[Dab]T[Orn][Dab][Dab][dF]T[Dab][Dab]T; lactam 4-C) | > 500 | 0.06 (≈ 0.0498 µM) | ≤0.03 | ≤0.03 | 0.25 (≈ 0.207 µM) | ≤0.03 | ≤0.03 | ≤0.03 | 0.125 (≈ 0.104 µM) |
